From PMC11647725, “Discovery of 4-(5-Membered)Heteroarylether-6-methylpicolinamide Negative Allosteric Modulators of Metabotropic Glutamate Receptor Subtype 5” (ACS Medicinal Chemistry Letters, 2024)

What was measured:
[1] = target: T1, CYP 2D6 (Homo sapiens, UniProt P10635); assay: P450 inhibition in pooled human liver microsomes; assay type: in vitro ADME; conditions: pooled HLM, NADPH, CYP-specific probe substrates; listed as VU6043653
T1 construct: from tissue; host or cells: pooled human liver microsomes (per the earlier reading)
T1 sequence (P10635 whole entry): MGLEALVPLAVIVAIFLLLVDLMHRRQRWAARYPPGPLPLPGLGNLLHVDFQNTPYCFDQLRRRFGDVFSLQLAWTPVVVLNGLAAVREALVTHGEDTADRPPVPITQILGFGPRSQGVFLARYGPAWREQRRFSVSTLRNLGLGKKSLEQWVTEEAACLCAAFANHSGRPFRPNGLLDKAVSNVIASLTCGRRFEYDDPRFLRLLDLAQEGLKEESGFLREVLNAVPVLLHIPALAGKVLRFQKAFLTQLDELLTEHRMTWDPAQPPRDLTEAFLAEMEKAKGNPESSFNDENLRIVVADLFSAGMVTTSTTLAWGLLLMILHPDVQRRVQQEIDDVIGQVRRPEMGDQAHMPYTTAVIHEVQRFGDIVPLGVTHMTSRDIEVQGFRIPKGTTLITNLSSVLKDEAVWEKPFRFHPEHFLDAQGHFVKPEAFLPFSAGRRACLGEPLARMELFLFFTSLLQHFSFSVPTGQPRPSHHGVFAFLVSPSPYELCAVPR

[2] = In vivo dog pharmacokinetics; conditions: Dog (beagle)
[3] = target: Adenosine A1 (Homo sapiens, UniProt P30542); assay: Lead Profiling Screen, Eurofins Panlabs; assay type: binding; conditions: Adenosine A1, hum, read-out: % inh at 10 μM
Description: (§1) Nonetheless, as a non-aryl/heterobiaryl acetylene mGlu5 NAM with an encouraging in vivo rodent PK profile, we wished to further assess VU6043653 as a novel chemotype. Therefore, we compared metabolites in multiple species to better understand species differences in clearance and metabolism. […] Consistent with the high plasma clearance observed in dogs, high turnover was observed more so in dog hepatocytes than any other species tested (see the Supporting Information for additional details and results). To further evaluate our novel chemotype, the off-target and safety/toxicity profiles for this compound were further investigated.
(§2) Table S2. Lead Profiling Screen – Eurofins Panlabs for VU6043653.

[4] = target: Adrenergic α1A (Homo sapiens, UniProt P35348); assay: Lead Profiling Screen, Eurofins Panlabs; assay type: binding; conditions: hum, read-out: % inh at 10 μM
Description: as §1, §2

[5] = target: Adrenergic α1B (Homo sapiens, UniProt P35368); assay: Lead Profiling Screen, Eurofins Panlabs; assay type: binding; conditions: hum, read-out: % inh at 10 μM
Sequence of Adrenergic α1B (P35368 whole entry): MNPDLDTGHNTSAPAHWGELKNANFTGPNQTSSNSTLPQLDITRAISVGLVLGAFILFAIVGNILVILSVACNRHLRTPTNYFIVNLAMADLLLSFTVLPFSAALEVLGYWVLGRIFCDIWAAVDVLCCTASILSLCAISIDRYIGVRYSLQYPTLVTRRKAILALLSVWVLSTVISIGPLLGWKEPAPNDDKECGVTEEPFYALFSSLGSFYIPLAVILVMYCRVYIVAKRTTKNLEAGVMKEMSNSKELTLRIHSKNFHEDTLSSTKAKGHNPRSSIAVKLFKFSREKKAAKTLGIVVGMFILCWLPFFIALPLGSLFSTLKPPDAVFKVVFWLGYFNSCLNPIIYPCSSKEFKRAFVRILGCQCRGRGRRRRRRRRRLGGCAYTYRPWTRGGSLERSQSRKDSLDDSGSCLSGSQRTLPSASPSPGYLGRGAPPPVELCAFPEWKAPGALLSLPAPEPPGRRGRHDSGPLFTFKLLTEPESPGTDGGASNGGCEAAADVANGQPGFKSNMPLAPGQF
Description: as §1, §2

[6] = target: Adrenergic α1D (Homo sapiens, UniProt P25100); assay: Lead Profiling Screen, Eurofins Panlabs; assay type: binding; conditions: hum, read-out: % inh at 10 μM
Sequence of Adrenergic α1D (P25100 whole entry): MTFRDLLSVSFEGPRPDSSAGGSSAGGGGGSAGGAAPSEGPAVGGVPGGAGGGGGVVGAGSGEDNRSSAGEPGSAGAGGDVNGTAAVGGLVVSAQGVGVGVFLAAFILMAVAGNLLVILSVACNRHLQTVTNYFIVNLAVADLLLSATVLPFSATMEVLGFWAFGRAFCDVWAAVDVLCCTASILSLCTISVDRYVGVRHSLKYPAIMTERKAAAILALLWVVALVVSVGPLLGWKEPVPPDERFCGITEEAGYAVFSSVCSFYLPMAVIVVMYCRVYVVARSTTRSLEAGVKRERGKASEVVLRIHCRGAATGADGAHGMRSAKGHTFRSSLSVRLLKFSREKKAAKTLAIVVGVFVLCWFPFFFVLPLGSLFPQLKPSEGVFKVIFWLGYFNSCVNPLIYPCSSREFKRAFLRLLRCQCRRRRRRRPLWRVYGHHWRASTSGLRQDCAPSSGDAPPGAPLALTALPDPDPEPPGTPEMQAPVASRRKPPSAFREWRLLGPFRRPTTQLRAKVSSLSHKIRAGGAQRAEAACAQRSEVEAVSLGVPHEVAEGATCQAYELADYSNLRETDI
Description: as §1, §2

[7] = target: Adrenergic α2A (Homo sapiens, UniProt P08913); assay: Lead Profiling Screen, Eurofins Panlabs; assay type: binding; conditions: hum, read-out: % inh at 10 μM
Sequence of Adrenergic α2A (P08913 whole entry): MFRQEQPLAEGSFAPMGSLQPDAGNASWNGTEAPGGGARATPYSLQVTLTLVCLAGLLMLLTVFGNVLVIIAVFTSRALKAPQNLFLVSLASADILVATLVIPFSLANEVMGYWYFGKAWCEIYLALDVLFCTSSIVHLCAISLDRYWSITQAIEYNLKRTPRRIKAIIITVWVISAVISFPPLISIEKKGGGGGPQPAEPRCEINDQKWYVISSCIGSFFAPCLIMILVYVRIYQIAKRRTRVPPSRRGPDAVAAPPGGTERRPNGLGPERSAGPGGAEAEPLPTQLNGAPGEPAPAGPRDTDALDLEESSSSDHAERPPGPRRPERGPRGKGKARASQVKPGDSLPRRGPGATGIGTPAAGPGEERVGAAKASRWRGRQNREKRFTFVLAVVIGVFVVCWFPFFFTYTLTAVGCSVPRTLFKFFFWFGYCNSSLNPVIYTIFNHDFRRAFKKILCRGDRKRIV
Description: as §1, §2

[8] = target: Adrenergic β1 (Homo sapiens, UniProt P08588); assay: Lead Profiling Screen, Eurofins Panlabs; assay type: binding; conditions: Adrenergic β1, hum, read-out: % inh at 10 μM
Sequence of Adrenergic β1 (P08588 whole entry): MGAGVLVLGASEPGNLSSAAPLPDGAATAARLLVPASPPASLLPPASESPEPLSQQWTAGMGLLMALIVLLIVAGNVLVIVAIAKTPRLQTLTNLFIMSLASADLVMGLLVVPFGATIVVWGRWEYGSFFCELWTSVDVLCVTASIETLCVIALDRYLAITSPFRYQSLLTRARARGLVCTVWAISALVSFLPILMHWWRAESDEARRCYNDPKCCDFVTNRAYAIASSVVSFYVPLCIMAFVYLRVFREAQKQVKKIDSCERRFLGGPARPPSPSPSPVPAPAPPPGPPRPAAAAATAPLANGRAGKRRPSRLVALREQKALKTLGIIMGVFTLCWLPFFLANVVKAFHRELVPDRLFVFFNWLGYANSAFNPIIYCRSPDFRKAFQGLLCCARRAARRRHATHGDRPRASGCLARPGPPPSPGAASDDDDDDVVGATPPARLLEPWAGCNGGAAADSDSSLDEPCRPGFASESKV
Description: as §1, §2

[9] = target: Adrenergic β2 (Homo sapiens, UniProt P07550); assay: Lead Profiling Screen, Eurofins Panlabs; assay type: binding; conditions: Adrenergic β2, hum, read-out: % inh at 10 μM
Sequence of Adrenergic β2 (P07550 whole entry): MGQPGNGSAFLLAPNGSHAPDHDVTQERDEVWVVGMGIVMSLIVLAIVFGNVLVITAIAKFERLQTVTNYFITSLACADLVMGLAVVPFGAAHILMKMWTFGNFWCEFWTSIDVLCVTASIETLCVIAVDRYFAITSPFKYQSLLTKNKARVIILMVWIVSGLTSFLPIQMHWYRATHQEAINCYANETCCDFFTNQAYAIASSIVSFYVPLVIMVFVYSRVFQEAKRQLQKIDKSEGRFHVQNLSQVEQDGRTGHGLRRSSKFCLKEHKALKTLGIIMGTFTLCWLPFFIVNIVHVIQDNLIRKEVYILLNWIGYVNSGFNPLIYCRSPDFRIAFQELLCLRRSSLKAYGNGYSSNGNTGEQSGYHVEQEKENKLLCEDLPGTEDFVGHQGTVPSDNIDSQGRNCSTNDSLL
Description: as §1, §2

[10] = target: Bradykinin B1 (Homo sapiens, UniProt P46663); assay: Lead Profiling Screen, Eurofins Panlabs; assay type: binding; conditions: Bradykinin B1, hum, read-out: % inh at 10 μM
Description: as §1, §2

[11] = target: Bradykinin B2 (Homo sapiens, UniProt P30411); assay: Lead Profiling Screen, Eurofins Panlabs; assay type: binding; conditions: Bradykinin B2, hum, read-out: % inh at 10 μM
Description: as §1, §2

[12] = target: Cannabinoid CB1 (Homo sapiens, UniProt P21554); assay: Lead Profiling Screen, Eurofins Panlabs; assay type: binding; conditions: Cannabinoid CB1, hum, read-out: % inh at 10 μM
Description: as §1, §2

[13] = target: Dopamine D1 (Homo sapiens, UniProt P21728); assay: Lead Profiling Screen, Eurofins Panlabs; assay type: binding; conditions: Dopamine D1, hum, read-out: % inh at 10 μM
Description: as §1, §2

[14] = target: Dopamine D2S (Homo sapiens, UniProt P14416); assay: Lead Profiling Screen, Eurofins Panlabs; assay type: binding; conditions: hum, read-out: % inh at 10 μM
Sequence of Dopamine D2S (P14416 1-414 isoform P14416-2): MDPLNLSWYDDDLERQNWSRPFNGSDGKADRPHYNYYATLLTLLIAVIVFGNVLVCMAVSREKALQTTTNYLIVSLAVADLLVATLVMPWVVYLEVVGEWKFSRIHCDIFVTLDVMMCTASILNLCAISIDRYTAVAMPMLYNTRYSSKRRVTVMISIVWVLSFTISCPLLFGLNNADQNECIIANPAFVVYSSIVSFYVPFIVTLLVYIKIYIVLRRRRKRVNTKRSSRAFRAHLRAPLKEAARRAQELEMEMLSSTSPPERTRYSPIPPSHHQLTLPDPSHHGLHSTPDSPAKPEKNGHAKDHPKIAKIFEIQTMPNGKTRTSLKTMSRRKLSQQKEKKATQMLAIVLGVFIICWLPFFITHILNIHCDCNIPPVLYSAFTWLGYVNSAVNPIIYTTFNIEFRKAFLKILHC
Description: as §1, §2

[15] = target: Dopamine D3 (Homo sapiens, UniProt P35462); assay: Lead Profiling Screen, Eurofins Panlabs; assay type: binding; conditions: Dopamine D3, hum, read-out: % inh at 10 μM
Description: as §1, §2

[16] = target: Dopamine D4.4 (Homo sapiens, UniProt P21917); assay: Lead Profiling Screen, Eurofins Panlabs; assay type: binding; conditions: Dopamine D4.4, hum, read-out: % inh at 10 μM
Description: as §1, §2

[17] = target: Endothelin ETA (Homo sapiens, UniProt P25101); assay: Lead Profiling Screen, Eurofins Panlabs; assay type: binding; conditions: hum, read-out: % inh at 10 μM
Sequence of Endothelin ETA (P25101 21-427): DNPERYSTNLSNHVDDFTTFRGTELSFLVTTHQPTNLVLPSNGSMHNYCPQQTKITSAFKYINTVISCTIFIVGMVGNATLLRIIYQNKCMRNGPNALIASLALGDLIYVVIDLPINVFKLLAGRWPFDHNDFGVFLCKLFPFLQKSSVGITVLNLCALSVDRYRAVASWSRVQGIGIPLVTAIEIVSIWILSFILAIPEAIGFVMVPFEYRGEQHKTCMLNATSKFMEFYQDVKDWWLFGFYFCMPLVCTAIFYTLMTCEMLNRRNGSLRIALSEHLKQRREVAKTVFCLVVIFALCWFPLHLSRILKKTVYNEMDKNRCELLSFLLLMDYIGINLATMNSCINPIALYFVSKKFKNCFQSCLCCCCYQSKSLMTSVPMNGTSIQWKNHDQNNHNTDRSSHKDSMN
Description: as §1, §2

[18] = target: Estrogen Erα (Homo sapiens, UniProt P03372); assay: Lead Profiling Screen, Eurofins Panlabs; assay type: binding; conditions: hum, read-out: % inh at 10 μM
Sequence of Estrogen Erα (P03372 whole entry): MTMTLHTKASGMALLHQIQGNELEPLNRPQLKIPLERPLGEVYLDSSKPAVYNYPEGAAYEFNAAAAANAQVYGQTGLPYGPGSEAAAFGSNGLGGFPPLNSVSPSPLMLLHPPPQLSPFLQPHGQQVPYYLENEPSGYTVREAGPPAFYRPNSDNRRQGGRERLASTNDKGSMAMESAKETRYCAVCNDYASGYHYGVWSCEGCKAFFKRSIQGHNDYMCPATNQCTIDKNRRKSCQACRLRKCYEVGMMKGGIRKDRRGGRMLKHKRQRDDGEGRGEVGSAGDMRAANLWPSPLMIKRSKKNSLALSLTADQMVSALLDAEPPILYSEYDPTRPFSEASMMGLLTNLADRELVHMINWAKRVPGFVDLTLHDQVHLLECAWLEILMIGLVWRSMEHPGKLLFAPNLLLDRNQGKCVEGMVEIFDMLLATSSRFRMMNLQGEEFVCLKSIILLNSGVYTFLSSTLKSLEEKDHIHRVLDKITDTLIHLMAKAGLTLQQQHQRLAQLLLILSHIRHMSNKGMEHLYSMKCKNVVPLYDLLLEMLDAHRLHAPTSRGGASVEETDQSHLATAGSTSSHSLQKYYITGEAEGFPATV
Description: as §1, §2

[19] = target: GABAB1A (Homo sapiens, UniProt Q9UBS5); assay: Lead Profiling Screen, Eurofins Panlabs; assay type: binding; conditions: hum, read-out: % inh at 10 μM
Description: as §1, §2

[20] = target: Glucocorticoid (Homo sapiens, UniProt P04150); assay: Lead Profiling Screen, Eurofins Panlabs; assay type: binding; conditions: hum, read-out: % inh at 10 μM
Description: as §1, §2

[21] = target: Histamine H1 (Homo sapiens, UniProt P35367); assay: Lead Profiling Screen, Eurofins Panlabs; assay type: binding; conditions: Histamine H1, hum, read-out: % inh at 10 μM
Description: as §1, §2

[22] = target: Histamine H2 (Homo sapiens, UniProt P25021); assay: Lead Profiling Screen, Eurofins Panlabs; assay type: binding; conditions: Histamine H2, hum, read-out: % inh at 10 μM
Description: as §1, §2

[23] = system: Calcium Channel L-Type, Benzothiazepine; assay: Lead Profiling Screen, Eurofins Panlabs; assay type: binding; conditions: rat
Description: as §1, §2
(§3) Assay Name Species % inh at 10 μM […]

[24] = system: Calcium Channel L-Type, Dihydropyridine; assay: Lead Profiling Screen, Eurofins Panlabs; assay type: binding; conditions: rat
Description: as §1, §2, §3

[25] = target: Calcium Channel N-Type (Rattus norvegicus, UniProt Q02294); assay: Lead Profiling Screen, Eurofins Panlabs; assay type: binding; conditions: read-out: % inh at 10 μM
Description: as §1, §2, §3

[26] = target: Epidermal Growth Factor (EGF) (Homo sapiens, UniProt P00533); assay: Lead Profiling Screen, Eurofins Panlabs; assay type: binding; conditions: hum, read-out: % inh at 10 μM
Description: as §1, §2, §3

[27] = system: GABAA, Flunitrazepam, Central; assay: Lead Profiling Screen, Eurofins Panlabs; assay type: binding; conditions: rat
Description: as §1, §2, §3

[28] = system: GABAA, Muscimol, Central; assay: Lead Profiling Screen, Eurofins Panlabs; assay type: binding; conditions: rat
Description: as §1, §2, §3

[29] = system: Glutamate, Kainate; assay: Lead Profiling Screen, Eurofins Panlabs; assay type: binding; conditions: rat
Description: as §1, §2, §3

[30] = system: Glutamate, NMDA, Agonism; assay: Lead Profiling Screen, Eurofins Panlabs; assay type: binding; conditions: rat
Description: as §1, §2, §3

[31] = target: Glutamate, NMDA, Glycine (Rattus norvegicus, UniProt P35439); assay: Lead Profiling Screen, Eurofins Panlabs; assay type: binding; conditions: read-out: % inh at 10 μM
Sequence of Glutamate, NMDA, Glycine (P35439 394-800 limits assumed): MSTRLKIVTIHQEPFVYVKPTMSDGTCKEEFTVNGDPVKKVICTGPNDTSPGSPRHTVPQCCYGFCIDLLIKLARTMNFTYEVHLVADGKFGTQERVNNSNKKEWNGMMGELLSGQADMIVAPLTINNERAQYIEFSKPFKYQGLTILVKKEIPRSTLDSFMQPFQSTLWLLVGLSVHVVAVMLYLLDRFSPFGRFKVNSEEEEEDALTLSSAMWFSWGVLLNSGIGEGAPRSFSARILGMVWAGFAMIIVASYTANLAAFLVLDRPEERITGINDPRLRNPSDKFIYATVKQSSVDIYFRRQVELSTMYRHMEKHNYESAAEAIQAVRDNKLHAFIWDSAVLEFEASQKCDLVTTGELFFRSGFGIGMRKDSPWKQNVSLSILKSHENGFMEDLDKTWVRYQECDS
Description: as §1, §2, §3

[32] = system: Glutamate, NMDA, Phencyclidine; assay: Lead Profiling Screen, Eurofins Panlabs; assay type: binding; conditions: rat
Description: as §1, §2, §3

[33] = system: Purinergic P2Y, Non-Selective; assay: Lead Profiling Screen, Eurofins Panlabs; assay type: binding; conditions: rat
[34] = system: Rolipram; assay: Lead Profiling Screen, Eurofins Panlabs; assay type: binding; conditions: rat
[35] = target: Serotonin (5-Hydroxytryptamine) 5-HT1A (Homo sapiens, UniProt P08908); assay: Lead Profiling Screen, Eurofins Panlabs; assay type: binding; conditions: Serotonin 5-HT1A, hum, read-out: % inh at 10 μM

`Cc1cc(Oc2cnn(C)c2)cc(C(=O)Nc2ccc(F)cn2)n1` [22iA] gave an IC50 [1] of at least 30 µM, a CLp ([2]; IV 0.5 mg/kg) of 38 mL/min/kg and an MRT ([2]; IV 0.5 mg/kg) of 1.41 h. The Vss ([2]; IV 0.5 mg/kg) was 3.2 L/kg, the t1/2 ([2]; IV 0.5 mg/kg) was 1.55 h and the “AUC0-∞” value ([2]; PO 3.0 mg/kg) was 264 ng·h/mL. For the same molecule, the Cmax ([2]; PO 3.0 mg/kg) was 70.3 ng/mL, the Tmax ([2]; PO 3.0 mg/kg) was 40.2 min and the “%F” value ([2]; PO 3.0 mg/kg, oral bioavailability) was 20%. The inhibition at 10 µM [3] was 20%, the inhibition at 10 µM [4] was 0% and the inhibition at 10 µM [5] was 3%. For the same molecule, the inhibition at 10 µM [6] was 3%, the inhibition at 10 µM [7] was 8% and the inhibition at 10 µM [8] was -4%. It also gave an inhibition at 10 µM [9] of -5%, an inhibition at 10 µM [10] of 4% and an inhibition at 10 µM [11] of 1%. For the same molecule, the inhibition at 10 µM [12] was 15%, the inhibition at 10 µM [13] was -2% and the inhibition at 10 µM [14] was -10%. For the same molecule, the inhibition at 10 µM [15] was -6%, the inhibition at 10 µM [16] was -9% and the inhibition at 10 µM [17] was -2%. For the same molecule, the inhibition at 10 µM [18] was 4%, the inhibition at 10 µM [19] was 3% and the inhibition at 10 µM [20] was 10%. The inhibition at 10 µM [21] was 24%, the inhibition at 10 µM [22] was -4% and the “% inh at 10 μM” value [23] was 22%. For the same molecule, the “% inh at 10 μM” value [24] was 1%, the inhibition at 10 µM [25] was -8% and the inhibition at 10 µM [26] was -3%. For the same molecule, the “% inh at 10 μM” value [27] was 0%, the “% inh at 10 μM” value [28] was -5% and the “% inh at 10 μM” value [29] was -7%. The “% inh at 10 μM” value [30] was 3%, the inhibition at 10 µM [31] was -18% and the “% inh at 10 μM” value [32] was -4%. The “% inh at 10 μM” value [33] was 9%, the “% inh at 10 μM” value [34] was -2% and the inhibition at 10 µM [35] was 3%.
